In data set [1] the test system is A549 luciferase expressing cells. Kind of data set: Evaluation of lung tissue harvested from nude mice after treatment. It counts as in vivo. The following applies: various concentrations, oral/ip routes.
A further data set concerns Erb B4. Kind of data set: Western blot of receptor levels in A549 cells: Erb B4. Format: cell-based, human. Here is the method:
(§1) Levels of Erb-1, Erb-2, Erb-3, Erb-4 and VEGFR were determined by western blot analysis.

The test system of the next data set is A549 and H1299 cells. Description: cells. The following applies: Homo sapiens, read-out: inhibiting concentration (IC50).
A further data set has as its system Erb B3. Kind of data set: Western blot of receptor levels in A549 cells: Erb B3. It counts as cell-based, human. The protocol:
as §1
(A western blot detects proteins with antibodies after separation by electrophoresis.)

Data set [2] deals with A549 cells. Kind of data set: Evaluation of ED50 from lung section and tumor regression studies. The following applies: oral route, based on lung section and tumor regression studies. Format: in vivo, nude mice. The protocol: The ED50 values were evaluated based on the lung section and tumor regression studies. […].
Another data set concerns VEGFR. Kind of data set: Western blot of receptor levels in A549 cells: VEGFR. Format: cell-based, human. Here is the method: as §1
A further data set concerns male and female mice. Description: Acute toxicity (LD0, LD50) in mice. Format: in vivo. The following applies: single oral dose; for LD50: Litchfield and Wilcoxon; for LD0: no mortality at end of 7 days. Here is the method: The doses 500, 750, 1000 and 2000 mg/Kg were administered orally. Each group consists of 5 mice. […] The survived animals were autopsied for asserting the absorption of compound through g.i.t.
The LD50 was determined using Litchfield and Wilcoxon (J. Pharmacol. Exp. Ther. 1949, 96: 99-113).

The test system of data set [3] is A549 cells. Kind of data set: In vivo evaluation on subcutaneous lung tumours in nude mice. The following applies: for tumour regression: subcutaneous A549 tumours.
From the text: Nude mice were implanted with 2×10^6 A549 cells in the right hind limb flank.
Another data set has as its system Erb B2. Kind of data set: Western blot of receptor levels in A549 cells: Erb B2. Format: cell-based, human. Here is the method:
as §1

Data set [4] relates to A549 luciferase expressing cells. Description: Nude mice implanted with A549 luciferase expressing cells, tumor observation. Format: in vivo. The following applies: 42 days treatment, oral and ip routes.
For another data set, the system named is H1299 and A549 cells. Description: Matrigel invasion assay (modified Boyden chamber). It counts as cell-based, human. The following applies: cells treated 48 hr, migration 24 h. Here is the method: The in vitro invasiveness of H1299 and A549 cells in the presence of various concentrations of NRC compounds (as determined by MTT assay) was assessed using a modified Boyden chamber assay. Cells were treated with these compounds for 48 hr. 1×10^6 cells were suspended in 600 μl of serum-free medium supplemented with 0.2% BSA and placed in the upper compartment of the transwell chambers (Corning Costar Fisher Scientific cat #07-200-158, Pittsburgh Pa.) coated with matrigel (0.7 mg/ml). The lower compartment of the chamber was filled with 200 μl of serum medium and the cells were allowed to migrate for 24 h. after incubation, the cells were fixed and stained with Hema-3 and quantified as previously described (Mohanam et al. 1993). The migrated cells were quantified as percent invasion.

For data set [5], the system named is A549 cells. Description: Visualization of tumors in lung tissue (H&E sections). Format: in vivo, nude mice. The following applies: intrapulmonary A549, 2.5 and 20 mg/Kg, oral/ip, thirty days daily treatment. An excerpt: Nude mice were implanted by intrapulmonary injections of A549 cells. […] Thirty days after daily drug treatments, mice were sacrificed and lungs harvested. The lung tissues were fixed in 10% buffered formaldehyde, paraffin embedded and sectioned. The sections were H&E stained as per statutory protocols to visualize solid or diffuse tumors.

A further data set has as its target T1, EGFR (Homo sapiens, UniProt P00533).
T1 construct: endogenous in cells; host or cells: H1299 or A549 cells
Kind of data set: Western blot analysis of EGFR expression. It counts as cell-based. The following applies: for concentration causing comparable inhibition of EGFR expression: H1299 or A549 cells, 72 hr.

“Also recorded” adds a separate entry of the source. Structures can show the parent of a compound that is named as a salt. Where two headings read alike, the source gives them in different places.

Method for A549 and H1299 cells: Solubilization of the cells by the addition of a detergent results in the liberation of the crystals, which are solubilized. The number of surviving cells is directly proportional to the level of the formazan product created. The color can then be quantified using a simple colorimetric assay. This assay was done using 0-1000 ng/ml concentrations of Erlotinib and the test compounds in A549 and H1299 cells.

For `C#Cc1cccc(Nc2ncnc3cc(OCCOC)c(OCCOC)cc23)c1` [Erlotinib HCl, N-(3-Ethylnylphenyl)-6,7-bis(2-methoxyethoxy)-4-quinazolinamine, reference compound], the “residual tumours in harvested lungs” value in [1] is “tumours were still present”. For the same molecule, the “Erb B4 level” value with Erb B4 was “not seen at all; also recorded: no such indication was seen”. The IC50 with A549 and H1299 cells was 0.836 µg/mL. Besides, in the data set with Erb B3, the “Erb B3 level” value is “not seen at all; also recorded: no such indication was seen”. Moreover, in the data set with A549 cells [2] (Mus musculus, A549, read-out: ED50), the ED50 – broadly, the midpoint of the dose-response relation – came to 22 mg/kg. For the same molecule, the VEGFR level result in the data set with VEGFR was “not seen at all; also recorded: no such indication was seen”. Further, in the data set on male and female mice, the LD50 (as a rule, the dose at which mortality reaches 50%) was 805 mg/kg (po) and the LD0 was 500 mg/kg (po). Also, the tumour regression entry in the data set with A549 cells [3] (100 mg/Kg dose) is “could not induce complete tumor regression; also recorded: tumours were still present”. The “Erb B2 level” value in the data set on Erb B2 is recorded as “not seen at all; also recorded: no such indication was seen”. Besides, the “tumors at end of treatment” value in data set [4] was “residual tumors were still present”.
For `C#Cc1cccc(Nc2ncnc3cc(OC)c(OCCCN4CCOCC4)cc23)c1` [NRC-2694, N-(3-ethylnylphenyl)-7-methoxy-6-[3-(4-morpholinyl)propoxy]-4-quinazolinamine], the “residual tumours in harvested lungs” value in data set [1] is recorded as “Complete regression of tumours”. Moreover, the “Erb B4 level” value is “down regulating” in the data set with Erb B4 and “down regulated” with Erb B4 (listed as NRC 2694). Also, the entries for the “Erb B3 level” value in the data set with Erb B3 and with Erb B3 (listed as NRC 2694) were “down regulating” and “down regulated”, respectively. This molecule yielded a 50% effective dose (ED50) with A549 cells [2] of 6.3 mg/kg. Besides, the invasion entry with H1299 and A549 cells was “significant decrease in invasion in a dose dependent manner”. In addition, the “tumors in lung tissue sections, comparison with erlotinib HCl” value in the data set on A549 cells [5] was “fared much better”. The VEGFR level result with VEGFR is recorded as “down regulating”; in the data set on VEGFR (listed as NRC 2694), “down regulated”. For the same molecule, the “level of efficacy versus erlotinib HCl (EGFR expression)” value on EGFR (80 ng versus 800 ng) is “ten fold”. In addition, the “concentration causing comparable inhibition of EGFR expression” value on EGFR is 80 ng; on EGFR (value in parentheses), 190 nm. For the same molecule, in the data set on male and female mice, the LD50 result was “could not be pinpointed”. The LD0 in the data set on male and female mice was 2000 mg/kg (po). Further, the tumour regression entry in the data set on A549 cells [3] (10 mg/Kg dose) is recorded as “complete regression of tumours”. In the data set with A549 cells [3] (10 mg/Kg versus 100 mg/Kg), the “superiority in efficacy versus erlotinib HCl” value is “ten fold”. Besides, the “Erb B2 level” value in the data set on Erb B2 is reported as “down regulating”; with Erb B2 (listed as NRC 2694), “down regulated”. The “tumors at end of treatment” value in data set [4] was “No tumors were observed”.
